Data on 19 compounds can be found in patent EP1137645B1, “ALPHA-METHYLBENZYL-CONTAINING THIOUREA INHIBITORS OF HERPES VIRUSES CONTAINING A […] GROUP” (Wyeth, priority 1998, dated 2000).

Converted amounts (≈) assume the structure as drawn. Like-named read-outs stand apart in the source and are kept apart here.

One assay concerns VZV strain Ellen. The assay is described as follows: VZV antiviral (ELISA) assay. The class given is cell-based. The procedure, abridged: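 HFF cells infected with VZV Ellen at multiplicity below 0.1 overnight, then mixed infected/uninfected cells seeded with compound in DMEM/2% FBS and incubated three days at 37°C, 5% CO2.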
Background: ELISA stands for enzyme-linked immunosorbent assay.

The subject of assay [1] is HCMV recombinant mutant virus whose genome contains the prokaryotic beta-glucuronidase gene. The assay is described as follows: microbe, parasite or virus in culture. As to conditions: Human betaherpesvirus 5, Fibroblast. Format: cell-based, human cytomegalovirus. Summed up:
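Antiviral IC50 estimated from reduced reporter activity across compound amounts: lysates prepared 96 h after infection were tested with p-nitrophenyl- or methylumbelliferyl-glucuronide. Cells were human foreskin fibroblasts, infected alongside inhibitor with HCMV (e.g. RV145) expressing viral promoter-driven beta-glucuronidase.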

In the next assay the test system is HSV- I. The assay can be described thus: HSV antiviral (ELISA) assay. The note with it: read-out: IC50 (ug/ml) HSV. The class given is cell-based. The procedure, abridged: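 IC50 from fluorescence versus untreated control in a cell ELISA: anti-glycoprotein D antibody, β-galactosidase-conjugated secondary, 4-methyl umbelliferone read at 365/450 nm. Vero cells (2% FBS DMEM) received compound 30 min pre-infection with HSV-1 at MOI 0.006, fixed ~24 h post-infection.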

Where [2] appears, read: Human alphaherpesvirus 3, HFF, read-out: % inhibition 10 ug/ml VZV.
The mark [3] stands for this setting: Human alphaherpesvirus 3, HFF, read-out: IC50 (ug/ml) VZV.
The mark [4] stands for this setting: read-out: IC50 ug/ml HCMV, HCMV, human foreskin fibroblasts.
The mark [5] stands for this setting: Human alphaherpesvirus 3, read-out: % inhibition 10 ug/ml VZV, 10 ug/ml, VZV strain Ellen, HFF cells, ELISA.
Where [6] appears, read: Human alphaherpesvirus 3, VZV strain Ellen, HFF cells, ELISA, read-out: IC50 (ug/ml) VZV.

As for `Cc1ccc(NC(=S)Nc2ccc(NC(=O)c3ccccc3F)c(C)c2)cc1Cl` [Example 395, N-{4-[3-(3-Chloro-4-methyl-phenyl)-thioureido]-2-methyl-phenyl}-2-fluoro-benzamide], the inhibition at 10 µg/mL in the assay with VZV strain Ellen (setting [2]) was 64%. For the same compound, the IC50 is above 10 µg/mL in the assay with VZV strain Ellen (setting [3]); 3 µg/mL (≈ 7.01 µM) in assay [1] (setting [4]); 0.2 µg/mL (≈ 0.467 µM) in the assay with HSV- I (HSV- I, Vero cells, ELISA).

Regarding `CC(=O)Nc1ccc(NC(=S)Nc2ccc(NC(=O)c3ccccc3F)cc2)cc1Cl` [Example 397, N-{4-[3-(4-Acetylamino-3-chloro-phenyl)-thioureido]-phenyl}-2-fluoro-benzamide], in the assay with VZV strain Ellen (setting [2]), the inhibition at 10 µg/mL was found to be 35%. Besides, the IC50 was above 10 µg/mL with VZV strain Ellen (setting [3]); 10 µg/mL (≈ 21.9 µM) in assay [1] (setting [4]); 5 µg/mL (≈ 10.9 µM) in the assay with HSV- I (HSV- I, Vero cells, ELISA).

Turning to `CCOC(=O)Nc1ccc(NC(=S)Nc2ccc(NC(=O)c3ccccc3F)cc2)cc1Cl` [Example 399, (2-Chloro-4-{3-[4-(2-fluoro-benzoylamino)-phenyl]-thioureido}-phenyl)-carbamic acid ethyl ester], the inhibition at 10 µg/mL in the assay on VZV strain Ellen (setting [2]) is 59%. The IC50 in the assay on VZV strain Ellen (Human alphaherpesvirus 3, HFF, read-out: IC50 (ug/ml) VZV, VZV strain Ellen, HFF cells, ELISA) was above 10 µg/mL; in assay [1] (setting [4]) it was 1.5 µg/mL (≈ 3.08 µM); in the assay on HSV- I (Vero) it was above 10 µg/mL.

As for `Nc1ccc(NC(=S)Nc2ccc(NC(=O)c3ccccc3F)cc2)cc1Cl` [Example 404, N-{4-[3-(4-Amino-3-chloro-phenyl)-thioureido]-phenyl}-2-fluoro-benzamide], in the assay on VZV strain Ellen (setting [2]), the inhibition at 10 µg/mL came to 15%. The IC50 was above 10 µg/mL with VZV strain Ellen (setting [3]); 8 µg/mL (≈ 19.3 µM) in assay [1] (setting [4]); 0.4 µg/mL (≈ 0.964 µM) in the assay with HSV- I (HSV- I, Vero cells, ELISA).

With `O=C(CN1CCSCC1)Nc1ccc(NC(=S)Nc2ccc(NC(=O)c3ccccc3F)cc2)cc1Cl` [Example 407, N-(4-{3-[3-Chloro-4-(2-thiomorpholin-4-yl-acetylamino)-phenyl]-thioureido}-phenyl)-2-fluoro-benzamide], the inhibition at 10 µg/mL in the assay with VZV strain Ellen (setting [2]) turned out to be 87%. In addition, the IC50 with VZV strain Ellen (setting [3]) is 0.7 µg/mL (≈ 1.25 µM); in assay [1] (setting [4]) it was above 10 µg/mL; with HSV- I (HSV- I, Vero cells, ELISA), 4 µg/mL (≈ 7.17 µM).

On to `CCN(CC)CC(=O)Nc1ccc(NC(=S)Nc2ccc(NC(=O)c3ccccc3F)cc2)cc1Cl` [Example 414, N-(4-{3-[3-Chloro-4-(2-diethylamino-acetylamino)-phenyl]-thioureido}-phenyl)-2-fluoro-benzamide], for which the inhibition at 10 µg/mL with VZV strain Ellen (setting [2]) was determined as 70%. The IC50 was above 15 µg/mL in the assay with VZV strain Ellen (setting [3]); above 10 µg/mL in assay [1] (setting [4]); 6 µg/mL (≈ 11.4 µM) with HSV- I (HSV- I, Vero cells, ELISA).

`O=C(CN1CCCC1)Nc1ccc(NC(=S)Nc2ccc(NC(=O)c3ccccc3F)cc2)cc1Cl` [Example 417, N-(4-{3-[3-Chloro-4-(2-pyrrolidin-1-yl-acetylamino)-phenyl]-thioureido}-phenyl)-2-fluoro-benzamide]: the inhibition at 10 µg/mL in the assay with VZV strain Ellen (setting [2]) was determined as 15%. The IC50 is above 10 µg/mL with VZV strain Ellen (setting [3]); above 10 µg/mL in assay [1] (setting [4]); 6 µg/mL (≈ 11.4 µM) in the assay on HSV- I (HSV- I, Vero cells, ELISA).

With `O=C(CN1CCCCCC1)Nc1ccc(NC(=S)Nc2ccc(NC(=O)c3ccccc3F)cc2)cc1Cl` [Example 423, N-(4-{3-[4-(2-Azepan-1-yl-acetylamino)-3-chloro-phenyl]-thioureido}-phenyl)-2-fluoro-benzamide], the inhibition at 10 µg/mL in the assay with VZV strain Ellen (setting [2]) amounted to 87%. Also, the IC50 was 0.9 µg/mL (≈ 1.62 µM) in the assay with VZV strain Ellen (setting [3]); 1 µg/mL (≈ 1.8 µM) in assay [1] (setting [4]); 4 µg/mL (≈ 7.22 µM) in the assay on HSV- I (HSV- I, Vero cells, ELISA).

As to `CC1CCCCN1CC(=O)Nc1ccc(NC(=S)Nc2ccc(NC(=O)c3ccccc3F)cc2)cc1Cl` (stereo not shown) [Example 425, N-[4-(3-{3-Chloro-4-[2-(2-methyl-piperidin-1-yl)-acetylamino]-phenyl}-thioureido)-phenyl]-2-fluoro-benzamide], the inhibition at 10 µg/mL in the assay with VZV strain Ellen (setting [2]) is 103%. Further, the IC50 is above 7.5 µg/mL in the assay on VZV strain Ellen (setting [3]), 0.5 µg/mL (≈ 0.902 µM) in assay [1] (setting [4]) and 3 µg/mL (≈ 5.41 µM) in the assay on HSV- I (Vero).

For `Cc1cccc(NC(=S)Nc2ccc(NC(=O)c3ccccc3F)cc2)c1` [Example 432, 2-Fluoro-N-[4-(3-m-tolyl-thioureido)-phenyl]-benzamide], the inhibition at 10 µg/mL in the assay with VZV strain Ellen (setting [5]) was found to be 0%. The IC50 is above 10 µg/mL in the assay with VZV strain Ellen (setting [6]); 10 µg/mL (≈ 26.4 µM) in assay [1] (read-out: IC50 ug/ml HCMV); 1.6 µg/mL (≈ 4.22 µM) in the assay on HSV- I (HSV- I, Vero cells, ELISA).

On to `O=C(Nc1ccc(NC(=S)Nc2cccc(C(F)(F)F)c2)cc1)c1ccccc1F` [Example 433, 2-Fluoro-N-{4-[3-(3-trifluoromethyl-phenyl)-thioureido]-phenyl}-benzamide], for which the inhibition at 10 µg/mL in the assay with VZV strain Ellen (setting [5]) was 0%. In addition, the IC50 in the assay on VZV strain Ellen (setting [6]) is above 10 µg/mL; in assay [1] (read-out: IC50 ug/ml HCMV), above 10 µg/mL; in the assay with HSV- I (HSV- I, Vero cells, ELISA), above 10 µg/mL.

Regarding `Nc1cccc(NC(=S)Nc2ccc(NC(=O)c3ccccc3F)cc2)c1` [Example 434, N-{4-[3-(3-Amino-phenyl)-thioureido]-phenyl}-2-fluoro-benzamide], in the assay on VZV strain Ellen (setting [5]), the inhibition at 10 µg/mL amounted to 0%. Besides, the IC50 was above 10 µg/mL in the assay with VZV strain Ellen (setting [6]); 5 µg/mL (≈ 13.1 µM) in assay [1] (read-out: IC50 ug/ml HCMV); 10 µg/mL (≈ 26.3 µM) in the assay with HSV- I (HSV- I, Vero cells, ELISA).

As to `Nc1ccc(Cl)cc1NC(=S)Nc1ccc(NC(=O)c2ccccc2F)cc1` [Example 437, N-{4-[3-(2-Amino-5-chloro-phenyl)-thioureido]-phenyl}-2-fluoro-benzamide], the inhibition at 10 µg/mL in the assay with VZV strain Ellen (setting [2]) was 0%. The IC50 with VZV strain Ellen (setting [3]) was 8 µg/mL (≈ 19.3 µM); in assay [1] (setting [4]) it was above 10 µg/mL; in the assay with HSV- I (Vero), 0.05 µg/mL (≈ 0.121 µM).

In the case of `Nc1cc(Cl)cc(NC(=S)Nc2ccc(NC(=O)c3ccccc3F)cc2)c1` [Example 442, N-{4-[3-(3-Amino-5-chloro-phenyl)-thioureido]-phenyl}-2-fluoro-benzamide], in the assay with VZV strain Ellen (setting [2]), the inhibition at 10 µg/mL is 81%. In addition, the IC50 with VZV strain Ellen (setting [3]) was 8 µg/mL (≈ 19.3 µM); in assay [1] (setting [4]) it was 2 µg/mL (≈ 4.82 µM); in the assay with HSV- I (HSV- I, Vero cells, ELISA), 1 µg/mL (≈ 2.41 µM).

Take `CC(O)c1cccc(NC(=S)Nc2ccc(NC(=O)c3ccccc3F)cc2)c1` (stereo not shown) [Example 448, 2-Fluoro-N-(4-{3-[3-(1-hydroxy-ethyl)-phenyl]-thioureido}-phenyl)-benzamide]: the inhibition at 10 µg/mL in the assay on VZV strain Ellen (setting [5]) was found to be 0%. In addition, the IC50 in the assay on VZV strain Ellen (setting [6]) is above 10 µg/mL; in assay [1] (read-out: IC50 ug/ml HCMV) it was 9 µg/mL (≈ 22 µM); in the assay on HSV- I (HSV- I, Vero cells, ELISA) it was above 10 µg/mL.

With `CC(C)c1cccc(NC(=S)Nc2ccc(NC(=O)c3ccccc3F)cc2)c1` [Example 452, 2-Fluoro-N-{4-[3-(3-isopropyl-phenyl)-thioureido]-phenyl}-benzamide], the inhibition at 10 µg/mL in the assay on VZV strain Ellen (setting [2]) worked out at 75%. Moreover, the IC50 amounted to 1 µg/mL (≈ 2.45 µM) in the assay with VZV strain Ellen (setting [3]); 2 µg/mL (≈ 4.91 µM) in assay [1] (setting [4]); 4 µg/mL (≈ 9.82 µM) in the assay with HSV- I (HSV- I, Vero cells, ELISA).

In the case of `CN(C)c1cccc(NC(=S)Nc2ccc(NC(=O)c3ccccc3F)cc2)c1` [Example 454, N-{4-[3-(3-Dimethylamino-phenyl)-thioureido]-phenyl}-2-fluoro-benzamide], the inhibition at 10 µg/mL in the assay with VZV strain Ellen (setting [2]) came out at 55%. The IC50 with VZV strain Ellen (setting [3]) is above 10 µg/mL; in assay [1] (setting [4]), 4 µg/mL (≈ 9.79 µM); with HSV- I (HSV- I, Vero cells, ELISA), 1.5 µg/mL (≈ 3.67 µM).

`COc1cc(C)c(Cl)cc1NC(=S)Nc1ccc(NC(=O)c2ccccc2F)cc1Cl` [Example 458, N-{3-Chloro-4-[3-(5-chloro-2-methoxy-4-methyl-phenyl)-thioureido]-phenyl}-2-fluoro-benzamide]: in the assay with VZV strain Ellen (setting [2]), the inhibition at 10 µg/mL amounted to 25%. Moreover, the IC50 was above 10 µg/mL in the assay on VZV strain Ellen (setting [3]); above 10 µg/mL in assay [1] (setting [4]); 0.06 µg/mL (≈ 0.125 µM) in the assay with HSV- I (HSV- I, Vero cells, ELISA).

For `Cc1ccc(NC(=S)Nc2ccc(NC(=O)c3ccccc3F)cc2Cl)cc1Cl` [Example 459, N-{3-Chloro-4-[3-(3-chloro-4-methyl-phenyl)-thioureido]-phenyl}-2-fluoro-benzamide], the inhibition at 10 µg/mL with VZV strain Ellen (setting [2]) stood at 25%. Besides, the IC50 is above 10 µg/mL with VZV strain Ellen (setting [3]); above 10 µg/mL in assay [1] (setting [4]); 0.12 µg/mL (≈ 0.268 µM) in the assay on HSV- I (HSV- I, Vero cells, ELISA).
